Read-outs that look alike come from different tables or passages of the source.
Columns and labels:
[1] = Turbidity, derived count rate of scattered light; type: physicochemical; conditions: for Count Rate / kcps: derived count rate of scattered light at 633 nm, 173°, from zeta-potential measurement, 0.1 mg/mL in 1 mM KCl after 1 d at 1 mg/mL in PBS, turbidity / microscopic aggregation, mean of triplicate
How it was run: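 Samples: 1 mg/mL in PBS pH 7.4 (from DMSO), 1 d at RT, then diluted in 1 mM KCl immediately before measurement. Triplicates, two independent runs averaged.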

[2] = type: physicochemical; set-up: key to Fibril / Fibril Formation / TEM 2cat / Fibril: 1 = fibrils present; 0 non-fibrillar structures; conditions: for Fibril / Fibril Formation: 1 mg/mL, uranyl acetate stain, qualitative
[3] = Turbidity, derived count rate of scattered light; type: physicochemical; conditions: for Count Rate: derived count rate of scattered light (turbidity); for Log10 Count Rate: turbidity, derived count rate of scattered light, data of Figure 2D
[4] = Zeta-potential measurement; type: physicochemical
How it was run: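 Zeta potentials of aggregated peptides come from electrophoretic mobility (Smoluchowski model) in 1 mM KCl after a 1 d RT incubation at 1 mg/mL in PBS, pH 7.4.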

[5] = Log10 of derived count rate of scattered light (turbidity)
[6] = log10 of derived count rate of scattered light (turbidity)
[7] = turbidity, Log10 of derived count rate of scattered light, Figure 3A source data
[8] = FigS12 panel A, fibril category by TEM
[9] = TEM, 1 = fibrils present, 0 = non-fibrillar
[10] = TEM, 1 = fibrils present, 0 = non-fibrillar structures
[11] = zeta potential of peptide assemblies
[12] = zeta-potential of peptide, source data of Figure 2C
[13] = zeta-potential of the peptide assemblies, mean, Figure 3A source data
[14] = turbidity, log10 of derived count rate of scattered light
[15] = logarithm of count rate in kcps
[16] = category: fibrils present or non-fibrillar

Substance | Log10 Count Rate [1, 5] | Count Rate / kcps [1] [kcps] | Log10 Count Rate [1, 7] | TEM 2cat ([2]; Fig S10 panel D) | TEM 2cat [2, 8] | Fibril ([2]; FigS12 panel B, TEM) | Fibril / Fibril Formation ([2]; TEM) | Fibril [2, 9] | Fibril [2, 10] | Count Rate [3] | Log10 Count Rate [3] | Zeta-Potential / mV [4, 12] [mV] | Zeta-Potential / mV [4, 13] [mV] | Log10 Count Rate [1, 14] | Fibril ([2]; Fig S10 panel E) | Zeta-Pot. [4] | Log10 Count Rate [1, 15] | TEM 2cat [2, 16] | further results
CEFEFQF | 2.565 | 367 | 2.565 | 1 | 1 | 1 | 1 | 1 | 1 | 367.4 | 2.565 | -10.825 | -13.7 |  |  |  |  |  | Log10 Count Rate [1, 6]: 2.565; Zeta-Pot. [4, 11]: -13.7
CEIEIQI | 1.716 | 52 | 1.716 | 1 | 1 | 1 | 1 | 1 | 1 | 51.97 | 1.716 | -24.43 | -26.1 | 1.716 | 1 | -26.1 |  |  | 
CETMYDKILKNLSRSR | 3.041 | 1099 | 3.041 | 0 | 0 | 0 | 0 | 0 | 0 | 1099 | 3.041 | -1.487 | 0.41 | 3.041 | 0 | 0.41 |  |  | 
CHLHLQL | 3.062 | 1155 | 3.062 | 0 | 0 | 0 | 0 | 0 | 0 | 1155 | 3.062 | -10.37 | -12.27 | 3.062 | 0 | -12.27 | 3.062 |  | 
CKFC | 2.371 | 235 | 2.371 | 0 | 0 | 0 | 0 | 0 | 0 | 235.1 | 2.371 | -2.077 | -19.89 | 2.371 | 0 | -19.89 |  |  | 
CKFKFQF | 3.725 | 5303 | 3.725 | 1 |  |  | 1 | 1 | 1 | 5303 | 3.725 | 17.4 | 19.73 | 3.725 | 1 | 19.73 | 3.725 | 1 | Count Rate ([1]; T0, mean of n = 3): 719.1 kcps; Count Rate ([1]; T0, replicate 2): 718.1 kcps; Count Rate ([1]; T0, replicate 3): 875.1 kcps; Count Rate ([1]; T2m, mean of n = 3): 801.2 kcps; Count Rate ([1]; T2m, replicate 1): 2097 kcps; Count Rate ([1]; T2m, replicate 2): 115.2 kcps; Count Rate ([1]; T2m, replicate 3): 191.5 kcps; Count Rate ([1]; T1d, mean of n = 3): 1387.9 kcps; Count Rate ([1]; T1d, replicate 1): 43.1 kcps; Count Rate ([1]; T1d, replicate 2): 2192.2 kcps; Count Rate ([1]; T1d, replicate 3): 1928.4 kcps; Zeta pot. / mV ([4]; zeta potential of the peptide assemblies): 19.73 mV
CKFKFQFNM | 3.347 | 2224 | 3.347 | 1 |  |  | 1 | 1 | 1 | 2224 | 3.347 | 14.97 | 15.13 | 3.347 | 1 | 15.13 | 3.347 | 1 | 
CKFKFQFNMW | 3.613 | 4107 | 3.613 | 1 |  |  | 1 | 1 | 1 | 4107 | 3.613 | 17.67 | 18.4 |  |  |  |  | 1 | Log10 Count Rate [1, 6]: 3.613; Zeta-Pot. [4, 11]: 18.4
CKFKFQFNMWQ | 2.154 | 143 | 2.154 | 1 |  |  | 1 | 1 | 1 | 142.5 | 2.154 | 15.58 | 17.03 | 2.154 | 1 | 17.03 |  | 1 | 
CKFQC | 2.115 | 130 | 2.115 | 0 | 0 | 0 | 0 | 0 | 0 | 130.4 | 2.115 | -5.253 | -17.38 | 2.115 | 0 | -17.38 |  |  | 
CKIKIQIII | 3.695 | 4953 | 3.695 | 1 |  |  | 1 | 1 | 1 | 4953 | 3.695 | 16.2 | 16.2 | 3.695 |  | 16.2 |  | 1 | 
CKIKQIINM | 3.957 | 9058 | 3.957 | 1 |  |  | 1 | 1 | 1 | 9058 | 3.957 | 13.87 | 12.9 | 3.957 | 1 | 12.9 |  | 1 | 
CKWKWQW | 3.876 | 7511 | 3.876 | 1 |  |  | 1 | 1 | 1 | 7511 | 3.876 | 16.02 | 14.7 |  |  |  | 3.876 | 1 | Log10 Count Rate [1, 6]: 3.876; Zeta-Pot. [4, 11]: 14.7
